From PubChem BioAssay (NCI)
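Interpolation was linear, between the two tested concentrations surrounding the appropriate level; five concentrations were tested over 48 hours in 96-well plates. TGI denotes the concentration required for complete inhibition of growth.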

Columns and labels:
Experiment in all cases: NCI anticancer screen, dose series, 48 h
UACC-62 melanoma = system: UACC-62 melanoma
HCT-116 colon = system: HCT-116 colon
UO-31 renal = system: UO-31 renal
UACC-257 melanoma = system: UACC-257 melanoma
ACHN renal = system: ACHN renal
U251 CNS = system: U251 CNS
TK-10 renal = system: TK-10 renal
K-562 leukemia = system: K-562 leukemia
KM12 colon = system: KM12 colon
SF-539 CNS = system: SF-539 CNS

| Structure (SMILES) | TGI (UACC-62 melanoma) [µM] | TGI (HCT-116 colon) [µM] | TGI (UO-31 renal) [µM] | TGI (UACC-257 melanoma) [µM] | TGI (ACHN renal) [µM] | TGI (U251 CNS) [µM] | TGI (TK-10 renal) [µM] | TGI (K-562 leukemia) [µM] | TGI (KM12 colon) [µM] | TGI (SF-539 CNS) [µM] |
| --- | --- | --- | --- | --- | --- | --- | --- | --- | --- | --- |
| CC(=O)Nc1ccc(/C=C2/NC(=S)N(/C=C3\C(=O)Oc4ccccc4C3=O)C2=O)cc1 | > 100 | > 100 | > 100 | > 100 | > 100 | > 100 | > 100 | > 100 | > 100 | > 100 |
| CC(C)(C)C(=O)N1CCN(C=O)C1=S | > 100 | > 100 | 60.2 | > 100 | > 100 | > 100 | > 100 | > 100 | > 100 | > 100 |
| C=CCc1ccccc1C1CC2(C(=O)OC)OC1C(C(=O)OC)=C2C(=O)OC (stereo not given) | > 10 | > 10 | > 10 | > 10 | > 10 | > 10 | > 10 | > 10 | > 10 | > 10 |
| COC1(OC)C=CC(=O)C=C1 | 4.08 | 2.77 | 4.22 | 8.48 | 8.56 | 4.9 | 7.67 | > 100 | 25.8 | 11.8 |
| COc1cc(C)cc2c(-c3c(O)cc(O)c4c3C[C@H](C)N[C@H]4C)cc(-c3cc(-c4c(O)cc(O)c5c4C[C@H](C)N[C@H]5C)c4cc(C)cc(OC)c4c3O)c(O)c12 | > 100 | > 100 | > 100 | > 100 | > 100 | > 100 | > 100 | > 100 | > 100 | > 100 |
| O=[N+]([O-])c1ccc2nc(/C=C(\O)c3ccc(Cl)cc3)c(/C=C(\O)c3ccc(Cl)cc3)nc2c1 | > 100 | > 100 | > 100 | > 100 | > 100 | > 100 | > 100 | > 100 | > 100 | > 100 |
| CC(=Nc1cc(Cl)cc(Cl)c1)c1ccncc1 | > 100 | > 100 | > 100 | > 100 | > 100 | > 100 | > 100 | > 100 | > 100 | > 100 |
